Entries after “also recorded” stand apart in the source; their conditions may differ.
Experiments:
[1] = system: dopaminergic neurons in C. elegans; test: MPP+ toxicity to dopaminergic neurons in C. elegans; type: in vivo; settings: for protection of dopaminergic neurons from MPP+: 10 μM, 5 mM MPP+ for 40 hrs
Procedure: FIG. 31. Neuroprotective efficacy of P7C3 and P7C3A20 for MPP^+ toxicity to dopaminergic neurons in C. elegans. Worms were treated with 5 mM MPP^+ for 40 hrs, with pre-incubation for 30 minutes with different concentrations of test compounds or vehicle. […] By contrast, GFP expression was lost after 40 hrs of MPP^+ exposure (unfilled arrow). […] 20 worms were analyzed per group, and each group was performed in triplicate. Data are expressed as mean±SEM.
Genes, metabolic signaling pathways, neurotransmitters and receptor pharmacology are highly conserved between C. elegans and vertebrates, and exposure of C. elegans to MPP^+ has been reported to selectively kill dopaminergic neurons and impair mobility. To investigate the neuroprotective efficacy of P7C3A20, P7C3 and Dimebon from MPP^+ toxicity in C. elegans, we monitored dopaminergic cell death in a transgenic strain of worms in which dopaminergic neurons fluoresce green by virtue of GFP expression driven by the dopaminergic neuron-specific promoter dat-1. […] Cephalic sensilla dopaminergic dendrites were observed under 40× magnification (AMG, Evos fl microscope), and GFP signal was followed from the nerve ring to the tip of the nose, following established protocols. If any part of a dendrite was absent, as evidenced by loss of GFP signal, it was counted as degraded. All analyses were performed blind to treatment group.
Synchronized L1 larvae were plated into each well of a 12-well plate (approximately 400 larvae per well) containing PBS, Vehicle or compounds, with or without 5 mM MPP^+ iodide (Sigma) freshly diluted in PBS. DMSO was used as vehicle (VEH) and the concentration in treatment groups was maintained below 1%. The assay solution ([…]) was incubated for 40 hrs at 20 degrees Celsius. The worms were then washed in dH2O and supernatant was aspirated. To examine dopaminergic neuron toxicity, worms were anesthetized (0.1% tricaine, 0.01% tetramizole) for 5 min and then transferred to microscope slides and coverslipped. Pictures were taken at 40× magnification (AMG, Evos fl microscope). Each experiment was conducted in triplicate with 10-20 worms counted per condition. For quantification, investigators were blind to treatment condition. Quantification was done by observing all four cephalic sensilla (CEP) dendrites, per standard protocol. Briefly, GFP fluorescence was visualized from the nerve ring to the tip of the nose, and if any portion of a dendrite was absent then it was counted as being degenerated.

C. elegans = test: MPP+-induced mobility deficits in C. elegans; type: in vivo; settings: for locomotion (distance traveled by the head in 10 seconds divided by body length): 10 μM with MPP+, VEH 16.2±0.49, MPP+ alone 7.2±0.68; for mobility protected, relative to normal: 10 μM, 5 mM MPP+ for 32 hours
Procedure: FIG. 32. Protective efficacy of P7C3 and P7C3A20 for MPP^+-induced mobility deficits in C. elegans. The top panels show worms with the head identified by a green dot. […] Tracking is visualized as starting with blue color and progressing to white by the completion of 10 seconds. The green dot was used to determine locomotion, defined as the distance traveled by the head of the worm in 10 seconds divided by body length. Scale bars represent 70 μM. […] When worms were treated with MPP^+, locomotion was reduced more than 50% (7.2±0.68; n=31, p<0.0001). […] P7C3A20 protected mobility to almost 80% of normal (12.8±0.81; n=34, *p<0.01), and 10 μM P7C3 protected almost 60% (m.i. of 9.6±0.72; n=28, *p<0.05). […] (7.7±1.0; n=30). Experiments were performed in triplicate and data are expressed as mean±SEM.
As a behavioral measure of toxicity, worm mobility was assessed 32 hours after MPP^+-exposure. To quantify worm locomotion, video representations were recorded for 10 seconds at 4× magnification using a Nikon Eclipse 80i microscope. Each video segment consisted of 160 frames, and the head of each worm (10-20 worms per group, repeated in triplicate) was manually tracked in each frame using Imera software. The body length of each worm was also measured by Imera software. The ratio of distance traveled to body length was used to determine the movement index, defined as locomotion, as previously established (Wang J., et al. (2009) An ALS-linked mutant SOD1 produces a locomotor defect associated with aggregation and synaptic dysfunction when expressed in neurons of Caenorhabditis elegans. PLoS Genetics e10003350). […] Co-incubation of MPP^+-exposed worms with 10 μM P7C3A20 conferred 80% preservation of locomotion, while 10 μM P7C3 protected to about 60% of normal levels.
A video-based assay was used to assess the swim speed, distance traveled and length of worms. After exposure to MPP^+ for 32 hrs, worms were washed, resuspended in M9 buffer (500 ul) and transferred to microscope slides. A 10 second movie was recorded at 4× magnification using a Nikon Eclipse 80i microscope. Each movie consisted of 160 frames and the distance traveled by the head of each worm was manually tracked in each frame using Imera software. This software was also used to measure the length of the worm body. The ratio of movement distance to body length was used as a movement index, and defined as locomotion per standard protocols.

G93A-SOD1 mutant mice = test: Accelerating rotarod test in G93A-SOD1 mice, treatment from day 80; type: in vivo, mouse; settings: 20 mg/kg/day i.p. from day 80
Procedure: FIG. 35. P7C3A20 preserves performance in the accelerating rotarod test when administered at the time of disease onset to G93A-SOD1 mutant mice. Treatment of G93A-SOD1 mutant mice with 20 mg/kg/d of P7C3A20, P7C3 or Dimebon, or the appropriate vehicle, was initiated on day 80, with 20 mice per group. All compounds were administered at 20 mg/kg/day i.p. in divided doses. […] Only sibling pairs were analyzed at each time point. By week 16, there were 13 compound-vehicle pairs remaining in each group. […] All testing and analysis was performed blind to treatment group.
Having observed evidence of compound-mediated protection of spinal cord motor neurons, we next sought to determine whether motor performance might also be protected in these mice. Motor performance was monitored by the accelerating rotarod task standardly employed for evaluation of rodent models of ALS. We again initiated administration of P7C3, P7C3A20 or Dimebon on day 80, at 20 mg/kg/day, starting with no less than 20 mice per treatment group. Each animal in each group had its own sibling-matched vehicle control, and testing was conducted blind to treatment group. Rotarod training was initiated on day 50 for 2 days, and repeated weekly testing was conducted every 7 days thereafter. Each mouse was subjected to four trials of 600 seconds each, with a 20 minute recovery break between each trial. The latency time to fall was averaged across all 4 trials.
Beginning on day 50, mice were trained on the accelerating rotarod using Colombia Instruments Rotamex-5. Training consisted of mice being placed on a rotarod moving at 5 rpm for 300 seconds. Mice were trained to stay on the rotarod for the entire 300 seconds. If a mouse fell, it was placed back on the rotarod and the 300 second trial was started again. Training took place on two consecutive days. On day 52, mice ran their first full rotarod test, as described in Current Protocols for Neuroscience. The rotarod began at 4 rpm and accelerated to 40 rpm over 600 seconds, increasing by 1.25 rpm every 20 seconds. The time to fall was automatically recorded. […]

Row | Structure (SMILES) | onset of neuroprotective efficacy ([1]; 1.0 μM) [%] | protection of dopaminergic neurons from MPP+ [1] | locomotion (distance traveled by the head in 10 seconds divided by body length) (C. elegans) | accelerating rotarod performance (G93A-SOD1 mutant mice) | onset of neuroprotective efficacy ([1]; 0.1 μM) [%] | mobility protected, relative to normal (C. elegans)
1 | OC(CNc1ccccc1)Cn1c2ccc(Br)cc2c2cc(Br)ccc21 (stereo not shown) [Example P7C3] | 35 | about 50% | 9.6±0.72 | insufficiently active to preserve motor function | – | –
2 | COc1cccc(NCC(F)Cn2c3ccc(Br)cc3c3cc(Br)ccc32)c1 (stereo not shown) [Example P7C3A20, N-(3-(3,6-dibromo-9H-carbazol-9-yl)-2-fluoropropyl)-3-methoxyaniline] | – | 80% | 12.8±0.81 | showed significantly better performance | 30 | 80%
3 | Cc1ccc2c(c1)c1c(n2CCc2ccc(C)nc2)CCN(C)C1 [Dimebon, 2,3,4,5-Tetrahydro-2,8-dimethyl-5-(2-(6-methyl-3-pyridyl)ethyl)-1H-pyrido(4,3-b)indole, reference compound] | – | failed to protect dopaminergic neurons | 7.7±1.0 | insufficiently active to preserve motor function | – | offered no protective efficacy; also recorded: did not offer any protection
